Reference: US5700679A, “Lipid vesicles having a bilayer containing a surfactant with anti-viral and spermicidal activity” (priority 1996, dated 1997)

Experiments:
[1] = test system: spermatozoa (human semen); assay: Sander-Cramer Spermicidal Assay; format: cell-based; conditions: highest dilution that immobilizes spermatozoa in less than 20 seconds; NP9 concentration 10 mg/mL in DMSO
Description: In this Example, the preparation of Example 1 was tested for spermicidal activity using the Sander-Cramer spermicidal assay. A series of dilutions of the test compound are prepared using 0.9% saline. 1 mL of test article is mixed with 0.2 mL of human semen in a […] by drawing the mixture into a pipet and forcibly expressing the mixture. This procedure is repeated 6 times. A hanging drop of the mixture is prepared and five fields are observed under low power magnification. The whole process from mixing to microscopic observation must be accomplished in less than 20 seconds. The end point is the highest dilution that immobilizes spermatozoa in less than 20 seconds.

spermatozoa = conditions: cited from earlier work

Substance | Highest Spermicidal Dilution [1] | spermicidal properties (in words) (spermatozoa)
poly(ethylene glycol) p-nonylphenyl ether [NP9 Control] | 91 | –
polyethylene glycol p-isooctylphenyl ether [TRITON-X] | – | some spermicidal properties
